Results taken from PMC3222274 (Molecular and biochemical parasitology, 2011).

How the values were obtained:
Dv-ACE-1 = Dv-ACE-1 (Dictyocaulus viviparus, UniProt Q0H0R6); test: Ellman assay, transfected COS-7 extract, logistic fit; format: biochemical
CCC(=O)SCC[N+](C)(C)C = test: Ellman assay, transfected COS-7 extract, fit with Km, Kss and b; format: biochemical, Dictyocaulus viviparus; settings: pH 7, 0.3 mM DTNB, 167 mM NaCl, substrate-inhibition model
CCCC(=O)SCC[N+](C)(C)C = test: as above; format: biochemical, Dictyocaulus viviparus; settings: pH 7, 0.3 mM DTNB, 167 mM NaCl, substrate-activation model
CC(=O)SCC[N+](C)(C)C = test: as above; format: biochemical, Dictyocaulus viviparus; settings: pH 7, 0.3 mM DTNB, 167 mM NaCl, substrate-inhibition model

Compound | IC50 (Dv-ACE-1) [µM] | Km (CCC(=O)SCC[N+](C)(C)C) | Km (CCCC(=O)SCC[N+](C)(C)C) | Km (CC(=O)SCC[N+](C)(C)C)
C=CC[N+](C)(C)c1ccc(CCC(=O)CCc2ccc([N+](C)(C)CC=C)cc2)cc1 [BW284c51] | 0.303 |  |  | 
CCN(CC)C(C)CN1c2ccccc2Sc2ccccc21 (stereo not shown) [ethopropazine] | 137 |  |  | 
CC(C)NP(=O)(NC(C)C)OP(=O)(NC(C)C)NC(C)C [iso-OMPA] | > 3000 |  |  | 
CNC(=O)Oc1ccc2c(c1)[C@]1(C)CCN(C)[C@@H]1N2C [physostigmine] | 0.126 |  |  | 
Dv-ACE-1 (Dictyocaulus viviparus) |  | 1.59 ± 0.03 × 10^−3 M | 4.32 ± 1.61 × 10^−5 M | 7.51 ± 0.21 × 10^−4 M
